Test results: patent US6726919B2, “Injectable dispersion of propofol” (RTP Pharma, Inc., priority 2000, dated 2004)
Structures can show the parent of a compound that is named as a salt. Where two headings read alike, the source gives them in different places.

Test system: human whole blood
Type: cell-based
Conditions: both, 1 h
Description: In-vitro evaluation of the hemolytic influence of the preparations of this invention on human whole blood is determined as a further guide to selecting formulations with a low tendency to produce irritation around the site of injection. The hemolytic potential of a formulation on blood is evaluated by an assay of erythrocyte cytoplasmic marker enzyme, lactate dehydrogenase (LDH) which escapes from the leaky or ruptured erythrocytes into the plasma compartment of the blood. For the assay, blood is obtained from male or female Caucasian human volunteers of 18 to 65 years of age and stabilized with sodium heparin. A test formulation is mixed with an equal volume of human whole blood and incubated at 37° C. for about 1 hour. The mixture is then held at ambient temperature for 30 minutes followed by centrifugation at 1500 rpm for 10 min. The level of LDH in the supernatant is determined according to protocols known in the art. An upper limit titre is determined by measuring the LDH levels resulting from hemolysis by amiodarone hydrochloride, a compound known to result in vein irritation upon venous injection in clinical settings (PDR 1999, p. 3289). Amiodarone hydrochloride IV solution, when tested at 50 mg/mL and after dilution with 5% aqueous dextrose to 1.8 mg/mL can result in LDH values of about 8000 IU/L and about 700 IU/L, respectively.

LDH values (1.8 mg/mL): about 700 IU/L
LDH values (50 mg/mL): about 8000 IU/L
SMILES: CCCCc1oc2ccccc2c1C(=O)c1cc(I)c(OCCN(CC)CC)c(I)c1 [Amiodarone hydrochloride, amiodarone hydrochloride]
